From publication PMC5218480 (PLoS ONE, 2017)

Tested on: MV-4-11 cells
Assay: Gene expression microarray analysis (Affymetrix PrimeView) and GSEA
Assay type: cell-based, human
Design: RFU PODN (11730768_x_at) / Fold change /veh PODN (11730768_x_at) / RFU LINC00158 (11744669_a_at) / Fold change /veh LINC00158 (11744669_a_at) / RFU DUSP10 (11751237_a_at) / Fold change /veh DUSP10 (11751237_a_at) / RFU ID3 (11757404_x_at) / Fold change /veh ID3 (11757404_x_at) / RFU PLEKHG5 (11737974_s_at) / Fold change /veh PLEKHG5 (11737974_s_at) / RFU LRRC4B (11730491_at) / Fold change /veh LRRC4B (11730491_at) / RFU GIMAP4 (11747438_a_at) / Fold change /veh GIMAP4 (11747438_a_at) / RFU KRT8 (11758183_x_at) / Fold change /veh KRT8 (11758183_x_at) / RFU CNN1 (11734310_a_at) / Fold change /veh CNN1 (11734310_a_at) / RFU VPS37D (11726825_at) / Fold change /veh VPS37D (11726825_at) / RFU C10orf10 (11716522_x_at) / Fold change /veh C10orf10 (11716522_x_at) / RFU KIR2DL2 /// KIR2DL4 /// KIR2DL5A /// KIR2DL5B /// KIR2DS1 /// KIR2DS2 /// KIR2DS3 /// KIR2DS4 /// KIR3DL3 /// KIR3DL3 /// KIR3DS1 (11738374_at) / Fold change /veh KIR2DL2 /// KIR2DL4 /// KIR2DL5A /// KIR2DL5B /// KIR2DS1 /// KIR2DS2 /// KIR2DS3 /// KIR2DS4 /// KIR3DL3 /// KIR3DL3 /// KIR3DS1 (11738374_at) / RFU C1QL1 (11718748_at) / Fold change /veh C1QL1 (11718748_at) / RFU TMPRSS4 (11747572_a_at) / Fold change /veh TMPRSS4 (11747572_a_at) / RFU HAMP (11756126_x_at) / Fold change /veh HAMP (11756126_x_at) / RFU RNFT2 (11725882_a_at) / Fold change /veh RNFT2 (11725882_a_at) / RFU NR4A2 (11747474_a_at) / Fold change /veh NR4A2 (11747474_a_at) / RFU ABCC12 (11746883_a_at) / Fold change /veh ABCC12 (11746883_a_at) / RFU TMEM136 (11760407_x_at) / Fold change /veh TMEM136 (11760407_x_at) / RFU CLDN22 /// WWC2 (11732394_at) / Fold change /veh CLDN22 /// WWC2 (11732394_at) / RFU HLA-DPB1 (11760878_x_at) / Fold change /veh HLA-DPB1 (11760878_x_at) / RFU SPINT1 (11716480_a_at) / Fold change /veh SPINT1 (11716480_a_at) / RFU GAP43 (11754022_s_at) / Fold change /veh GAP43 (11754022_s_at) / RFU A4GNT (11735810_at) / Fold change /veh A4GNT (11735810_at) / RFU PRB3 (11715151_x_at) / Fold change /veh PRB3 (11715151_x_at) / RFU TUBB4B (11761932_at) / Fold change /veh TUBB4B (11761932_at) / RFU CAPN14 (11732068_a_at) / Fold change /veh CAPN14 (11732068_a_at) / RFU TMCC2 (11721928_a_at) / Fold change /veh TMCC2 (11721928_a_at) / RFU IRGQ (11745062_a_at) / Fold change /veh IRGQ (11745062_a_at) / RFU FAM174B (11720279_a_at) / Fold change /veh FAM174B (11720279_a_at) / RFU TMPRSS4 (11748680_a_at) / Fold change /veh TMPRSS4 (11748680_a_at) / RFU FAM212B (11763350_a_at) / Fold change /veh FAM212B (11763350_a_at) / RFU PLEKHG5 (11743358_a_at) / Fold change /veh PLEKHG5 (11743358_a_at) / RFU ZSCAN30 (11745921_a_at) / Fold change /veh ZSCAN30 (11745921_a_at) / RFU CMKLR1 (11741424_a_at) / Fold change /veh CMKLR1 (11741424_a_at) / RFU LOC101060620 /// MAPK8IP1 (11723275_at) / Fold change /veh LOC101060620 /// MAPK8IP1 (11723275_at) / RFU SPTSSB (11747773_x_at) / Fold change /veh SPTSSB (11747773_x_at) / RFU PRSS12 (11739890_at) / Fold change /veh PRSS12 (11739890_at) / RFU BIN1 (11741810_x_at) / Fold change /veh BIN1 (11741810_x_at) / RFU WNT11 (11732464_a_at) / Fold change /veh WNT11 (11732464_a_at) / RFU C10orf10 (11716521_a_at) / Fold change /veh C10orf10 (11716521_a_at) / RFU C5orf56 (11738089_at) / Fold change /veh C5orf56 (11738089_at) / RFU CYB561 (11721691_x_at) / Fold change /veh CYB561 (11721691_x_at) / RFU ANKRD19P (11752326_a_at) / Fold change /veh ANKRD19P (11752326_a_at) / RFU OR2T12 /// OR2T33 /// OR2T8 (11738714_s_at) / Fold change /veh OR2T12 /// OR2T33 /// OR2T8 (11738714_s_at) / RFU VCAN (11748164_a_at) / Fold change /veh VCAN (11748164_a_at) / RFU JSRP1 (11732532_at) / Fold change /veh JSRP1 (11732532_at) / RFU KRTAP10-11 (11738290_x_at) / Fold change /veh KRTAP10-11 (11738290_x_at) / RFU MYO3A (11730013_a_at) / Fold change /veh MYO3A (11730013_a_at) / RFU EBF3 (11725865_a_at) / Fold change /veh EBF3 (11725865_a_at) / RFU CAMK2N1 (11719241_x_at) / Fold change /veh CAMK2N1 (11719241_x_at) / RFU C5orf56 (11738088_a_at) / Fold change /veh C5orf56 (11738088_a_at) / RFU OLFML3 (11715873_a_at) / Fold change /veh OLFML3 (11715873_a_at) / RFU LOC100653217 /// NTM (11731650_a_at) / Fold change /veh LOC100653217 /// NTM (11731650_a_at) / RFU MAPK11 (11762145_a_at) / Fold change /veh MAPK11 (11762145_a_at) / RFU FIZ1 (11724087_x_at) / Fold change /veh FIZ1 (11724087_x_at) / RFU OASL (11726364_x_at) / Fold change /veh OASL (11726364_x_at) / RFU SOX15 (11748057_x_at) / Fold change /veh SOX15 (11748057_x_at) / RFU CD79A (11719716_a_at) / Fold change /veh CD79A (11719716_a_at) / RFU HIST1H1D (11736915_at) / Fold change /veh HIST1H1D (11736915_at) / RFU CASKIN2 (11723855_a_at) / Fold change /veh CASKIN2 (11723855_a_at) / RFU LOC730098 (11760151_x_at) / Fold change /veh LOC730098 (11760151_x_at) / RFU OR4N2 (11742367_at) / Fold change /veh OR4N2 (11742367_at) / RFU PRRT2 (11749266_a_at) / Fold change /veh PRRT2 (11749266_a_at) / RFU SNX32 (11753110_a_at) / Fold change /veh SNX32 (11753110_a_at) / RFU CDHR5 (11726645_a_at) / Fold change /veh CDHR5 (11726645_a_at) / RFU RCAN1 (11760418_a_at) / Fold change /veh RCAN1 (11760418_a_at) / RFU FAM167A (11723789_a_at) / Fold change /veh FAM167A (11723789_a_at) / RFU FAM26E (11764081_at) / Fold change /veh FAM26E (11764081_at) / RFU ISYNA1 (11749810_s_at) / Fold change /veh ISYNA1 (11749810_s_at) / RFU ACY1 (11761880_at) / Fold change /veh ACY1 (11761880_at) / RFU 11764098_at / Fold change /veh 11764098_at / RFU SAMD14 (11745864_x_at) / Fold change /veh SAMD14 (11745864_x_at) / RFU NPB (11741838_a_at) / Fold change /veh NPB (11741838_a_at) / RFU TMPRSS6 (11731388_a_at) / Fold change /veh TMPRSS6 (11731388_a_at) / RFU KRTAP10-2 (11738614_at) / Fold change /veh KRTAP10-2 (11738614_at) / RFU ARHGAP8 /// PRR5-ARHGAP8 (11727945_x_at) / Fold change /veh ARHGAP8 /// PRR5-ARHGAP8 (11727945_x_at) / RFU KRTAP5-7 /// NADSYN1 (11734609_at) / Fold change /veh KRTAP5-7 /// NADSYN1 (11734609_at) / RFU RASL12 (11751679_a_at) / Fold change /veh RASL12 (11751679_a_at) / RFU CDKN2B (11736163_a_at) / Fold change /veh CDKN2B (11736163_a_at) / RFU PRF1 (11729649_at) / Fold change /veh PRF1 (11729649_at) / RFU, ZNF638 /// ZNF638-IT1 / Fold change vs veh, ZNF638 /// ZNF638-IT1 / RFU, PANK3 / Fold change vs veh, PANK3 / RFU, SH3YL1 / Fold change vs veh, SH3YL1 / RFU, ZEB2 / Fold change vs veh, ZEB2 / RFU, NRIP1 / Fold change vs veh, NRIP1 / RFU, PTTG1IP / Fold change vs veh, PTTG1IP / RFU, CAPN2 / Fold change vs veh, CAPN2 / RFU, MED14 / Fold change vs veh, MED14 / RFU, SNORA58 / Fold change vs veh, SNORA58 / RFU, C1orf63 / Fold change vs veh, C1orf63 / RFU, LRRFIP1 / Fold change vs veh, LRRFIP1 / RFU, NDUFAF7 / Fold change vs veh, NDUFAF7 / RFU, SLC12A2 / Fold change vs veh, SLC12A2 / RFU, IBTK / Fold change vs veh, IBTK / RFU, ESF1 / Fold change vs veh, ESF1 / Fold change vs veh, TMEM50B / RFU, TAOK1 / Fold change vs veh, TAOK1 / RFU, ACBD3 / Fold change vs veh, ACBD3 / RFU, TMA16 / Fold change vs veh, TMA16 / RFU, RWDD3 / Fold change vs veh, RWDD3 / RFU, BCAT1 / Fold change vs veh, BCAT1 / RFU, EDEM3 / Fold change vs veh, EDEM3 / RFU, TMEM33 / Fold change vs veh, TMEM33 / RFU, WDR75 / Fold change vs veh, WDR75 / RFU, AHCTF1 / Fold change vs veh, AHCTF1 / RFU, TFRC / Fold change vs veh, TFRC / RFU, ZDHHC17 / Fold change vs veh, ZDHHC17 / RFU, NOM1 / Fold change vs veh, NOM1 / RFU, ARL8B / Fold change vs veh, ARL8B / RFU, ZBTB11 / Fold change vs veh, ZBTB11 / RFU, TAMM41 / Fold change vs veh, TAMM41 / RFU, KIAA1704 /// LOC100996395 / Fold change vs veh, KIAA1704 /// LOC100996395 / RFU, ING1 / Fold change vs veh, ING1 / RFU, TRMT61B / Fold change vs veh, TRMT61B / RFU, FUBP3 / Fold change vs veh, FUBP3 / RFU, TP53 / Fold change vs veh, TP53 / RFU, TNKS2 / Fold change vs veh, TNKS2 / RFU, ZFP14 / Fold change vs veh, ZFP14 / RFU, ACTR2 / Fold change vs veh, ACTR2 / RFU, PPP3R1 / Fold change vs veh, PPP3R1 / RFU, PIK3R1 / Fold change vs veh, PIK3R1 / RFU, HNRNPA1 / Fold change vs veh, HNRNPA1 / RFU, RNF170 / Fold change vs veh, RNF170 / RFU, ZNF28 / Fold change vs veh, ZNF28 / RFU, RNGTT / Fold change vs veh, RNGTT / RFU, OGT / Fold change vs veh, OGT / RFU, BRD1 / Fold change vs veh, BRD1 / RFU, MARS / Fold change vs veh, MARS / RFU, ZNF655 / Fold change vs veh, ZNF655 / RFU, FAHD1 / Fold change vs veh, FAHD1 / RFU, BDP1 / Fold change vs veh, BDP1 / RFU, LRRCC1 / Fold change vs veh, LRRCC1 / RFU, ARID1A / Fold change vs veh, ARID1A / RFU, ZNF146 / Fold change vs veh, ZNF146 / RFU, ZNF330 / Fold change vs veh, ZNF330 / RFU, GPN3 / Fold change vs veh, GPN3 / RFU, C9orf123 / Fold change vs veh, C9orf123 / RFU, N4BP2L2 / Fold change vs veh, N4BP2L2 / RFU, ARFIP1 / Fold change vs veh, ARFIP1 / RFU, FAM179B / Fold change vs veh, FAM179B / RFU, BCL10 / Fold change vs veh, BCL10 / RFU, UHRF1BP1L / Fold change vs veh, UHRF1BP1L / RFU, BET1 / Fold change vs veh, BET1 / RFU, CNOT2 / Fold change vs veh, CNOT2 / RFU, ZNF268 / Fold change vs veh, ZNF268 / Fold change vs veh, ZNF507 / RFU, DGCR2 / Fold change vs veh, DGCR2 / RFU, WDSUB1 / Fold change vs veh, WDSUB1 / Fold change vs veh, HSP90B1 /// MIR3652 / RFU, ADSS / Fold change vs veh, ADSS / RFU, GK / Fold change vs veh, GK / RFU, ZNF148 / Fold change vs veh, ZNF148 / RFU, TAF9 / Fold change vs veh, TAF9 / RFU, SLC1A5 / Fold change vs veh, SLC1A5 / RFU, SLMO2 / Fold change vs veh, SLMO2 / RFU, ABCC4 / Fold change vs veh, ABCC4 / RFU, LOC101060439 /// RAP1B / Fold change vs veh, LOC101060439 /// RAP1B / RFU, RFX7 / Fold change vs veh, RFX7 / RFU, GTPBP10 / Fold change vs veh, GTPBP10 / RFU, CNEP1R1 / Fold change vs veh, CNEP1R1 / RFU, BIVM-ERCC5 /// ERCC5 / Fold change vs veh, BIVM-ERCC5 /// ERCC5 / RFU, ILF3 / Fold change vs veh, ILF3 / RFU 11762660_at / Fold change /veh 11762660_at / RFU VCAN (11757783_s_at) / Fold change /veh VCAN (11757783_s_at) / RFU DDX43 (11728927_at) / Fold change /veh DDX43 (11728927_at) / RFU KRT8 (11758188_x_at) / Fold change /veh KRT8 (11758188_x_at) / RFU NKD1 (11759106_at) / Fold change /veh NKD1 (11759106_at) / RFU SRD5A1 (11742802_a_at) / Fold change /veh SRD5A1 (11742802_a_at) / RFU TPSAB1 /// TPSB2 (11721975_s_at) / Fold change /veh TPSAB1 /// TPSB2 (11721975_s_at) / RFU GSTM3 (11746129_a_at) / Fold change /veh GSTM3 (11746129_a_at) / RFU IL23R (11737362_x_at) / Fold change /veh IL23R (11737362_x_at) / RFU TMEM51 (11727254_a_at) / Fold change /veh TMEM51 (11727254_a_at) / RFU PIWIL2 (11732686_x_at) / Fold change /veh PIWIL2 (11732686_x_at) / RFU ORM1 (11744905_x_at) / Fold change /veh ORM1 (11744905_x_at) / RFU CCDC152 (11743942_at) / Fold change /veh CCDC152 (11743942_at) / RFU ECM1 (11717891_a_at) / Fold change /veh ECM1 (11717891_a_at) / RFU IL23R (11748794_a_at) / Fold change /veh IL23R (11748794_a_at) / RFU TNFAIP8L3 (11732012_x_at) / Fold change /veh TNFAIP8L3 (11732012_x_at) / RFU MBOAT4 (11741988_at) / Fold change /veh MBOAT4 (11741988_at) / RFU 11764193_at / Fold change /veh 11764193_at / RFU TMEM53 (11763286_at) / Fold change /veh TMEM53 (11763286_at) / RFU MAGEB2 (11727129_at) / Fold change /veh MAGEB2 (11727129_at) / RFU TMEM200A (11744735_a_at) / Fold change /veh TMEM200A (11744735_a_at) / RFU CCDC152 (11751479_a_at) / Fold change /veh CCDC152 (11751479_a_at) / RFU FAM211A (11726209_a_at) / Fold change /veh FAM211A (11726209_a_at) / RFU RGS16 (11746705_a_at) / Fold change /veh RGS16 (11746705_a_at) / RFU VCAN (11755009_s_at) / Fold change /veh VCAN (11755009_s_at) / RFU RHOB (11743442_s_at) / Fold change /veh RHOB (11743442_s_at) / RFU RGS16 (11720943_a_at) / Fold change /veh RGS16 (11720943_a_at) / RFU RGS16 (11720944_at) / Fold change /veh RGS16 (11720944_at) / RFU, VPS4B / Fold change vs veh, VPS4B / RFU, CREB1 / Fold change vs veh, CREB1 / RFU, DNAJC13 / Fold change vs veh, DNAJC13 / RFU, GNAQ / Fold change vs veh, GNAQ / RFU, CDK5R1 / Fold change vs veh, CDK5R1 / RFU, ZRANB3 / Fold change vs veh, ZRANB3 / RFU, CUL4A / Fold change vs veh, CUL4A / RFU, CCNY / Fold change vs veh, CCNY / RFU, UFL1 / Fold change vs veh, UFL1 / RFU, COG3 / Fold change vs veh, COG3 / RFU, DIAPH2 / Fold change vs veh, DIAPH2 / RFU, SKA2 / Fold change vs veh, SKA2 / RFU, AFF3 / Fold change vs veh, AFF3 / RFU, LMF1 / Fold change vs veh, LMF1 / RFU, IPO11 / Fold change vs veh, IPO11 / RFU, DFFB / Fold change vs veh, DFFB / RFU, FOXP1 / Fold change vs veh, FOXP1 / RFU, CARD8 / Fold change vs veh, CARD8 / RFU, STRN3 / Fold change vs veh, STRN3 / RFU, ADK / Fold change vs veh, ADK / RFU, RASSF2 / Fold change vs veh, RASSF2 / RFU, WIPF1 / Fold change vs veh, WIPF1 / RFU, LARP1B / Fold change vs veh, LARP1B / RFU, RASA1 / Fold change vs veh, RASA1 / RFU, RB1 / Fold change vs veh, RB1 / RFU, PPFIA1 / Fold change vs veh, PPFIA1 / RFU, MAT2A / Fold change vs veh, MAT2A / RFU, CCT5 / Fold change vs veh, CCT5 / RFU, WDR92 / Fold change vs veh, WDR92 / RFU, CUX1 / Fold change vs veh, CUX1 / RFU, TTC7A / Fold change vs veh, TTC7A / RFU, TMEM135 / Fold change vs veh, TMEM135 / RFU, DEPTOR / Fold change vs veh, DEPTOR / RFU, CPM / Fold change vs veh, CPM / RFU, DNAJB6 / Fold change vs veh, DNAJB6 / RFU, CACNA2D3 / Fold change vs veh, CACNA2D3 / RFU, DTX4 / Fold change vs veh, DTX4 / RFU, TFCP2 / Fold change vs veh, TFCP2 / RFU, GMCL1 /// GMCL1P1 / Fold change vs veh, GMCL1 /// GMCL1P1 / RFU, AEBP2 / Fold change vs veh, AEBP2 / RFU, SNHG1 /// SNORD22 /// SNORD25 /// SNORD26 /// SNORD27 /// SNORD28 /// SNORD29 /// SNORD31 / Fold change vs veh, SNHG1 /// SNORD22 /// SNORD25 /// SNORD26 /// SNORD27 /// SNORD28 /// SNORD29 /// SNORD31 / Fold change (Aza/veh), C12orf56 (ProbeSet 11735607_a_at) / Fold change (ACY-1035/veh), C12orf56 (ProbeSet 11735607_a_at) / Fold change (Aza/veh), FGFR1OP (ProbeSet 11751329_s_at) / Fold change (ACY-1035/veh), FGFR1OP (ProbeSet 11751329_s_at) / Fold change (Aza/veh), VPS36 (ProbeSet 11739960_a_at) / Fold change (ACY-1035/veh), VPS36 (ProbeSet 11739960_a_at) / RFU SYPL1 (11715823_x_at) / Fold change /veh SYPL1 (11715823_x_at) / RFU IGFBP7 (11715501_s_at) / Fold change /veh IGFBP7 (11715501_s_at) / RFU REEP3 (11722064_at) / Fold change /veh REEP3 (11722064_at) / RFU IGLL1 (11728026_x_at) / Fold change /veh IGLL1 (11728026_x_at): dose or concentration left out as unconfirmed
Settings: MV-4-11 cells, 48 hours

Question: For `Nc1ncn([C@@H]2O[C@H](CO)[C@@H](O)[C@H]2O)c(=O)n1` [azacitidine], which “RFU C5orf56 (11738088_a_at)” value is on record?
Answer: 66.32 RFU
